Test results reported in ChEMBL document CHEMBL1201862, “PubChem BioAssay data set” (2004).
Calls of active or inactive are those of the source.

Key:
[1] = test system: Streptococcus sp. 'group A'; assay: growth inhibition of control SK(-) GAS strain, dose response, counter-screen for streptokinase expression inhibitor project, luminescence, kanamycin, BacTiterGlo, confirmation (AID 1900); format: functional, organism-based
[2] = target: T1, Streptokinase A (Streptococcus pyogenes serotype M1, UniProt P10520); assay: S. pyogenes streptokinase expression inhibitors, potency, dose response, plasminogen activation absorbance, OD405 (AID 1914); format: functional, Streptococcus pyogenes M1 GAS;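 note: secreted streptokinase activity via plasminogen activation per viability signal from cell pellet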
T1 sequence (P10520 whole entry): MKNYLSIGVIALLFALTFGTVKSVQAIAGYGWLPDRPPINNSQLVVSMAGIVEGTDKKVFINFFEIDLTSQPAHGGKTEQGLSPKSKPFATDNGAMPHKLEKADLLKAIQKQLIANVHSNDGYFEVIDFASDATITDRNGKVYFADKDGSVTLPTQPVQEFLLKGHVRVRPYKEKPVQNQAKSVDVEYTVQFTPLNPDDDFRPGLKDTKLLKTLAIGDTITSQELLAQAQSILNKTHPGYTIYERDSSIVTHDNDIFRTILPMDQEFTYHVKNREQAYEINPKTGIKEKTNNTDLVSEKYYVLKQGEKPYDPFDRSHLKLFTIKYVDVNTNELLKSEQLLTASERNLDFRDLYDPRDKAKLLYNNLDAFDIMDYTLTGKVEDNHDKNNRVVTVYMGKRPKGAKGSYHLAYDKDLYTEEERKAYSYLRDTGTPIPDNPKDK

[3] = test system: Streptococcus; assay: Group A Streptococcus viability loss, dose response, counter-screen for streptokinase expression inhibitor project, luminescence, BacTiterGlo (AID 1915); format: functional, organism-based;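 note: potency for reduction of bacterial viability or growth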
[4] = target: Cytochrome P450 2C19 (Homo sapiens, UniProt P33261); assay: Cytochrome panel assay with activity outcomes. Panel member name: p450-cyp2c19 Compounds with AC50 equal or less than 10 uM are considered active; format: functional
[5] = target: T2, Replicative DNA helicase DnaB (Mycobacterium tuberculosis, UniProt P9WMR3); assay: DnaB intein splicing inhibitors, dose response, biochemical, cell-free fluorescence (AID 449749); format: functional
T2 sequence (P9WMR3 whole entry): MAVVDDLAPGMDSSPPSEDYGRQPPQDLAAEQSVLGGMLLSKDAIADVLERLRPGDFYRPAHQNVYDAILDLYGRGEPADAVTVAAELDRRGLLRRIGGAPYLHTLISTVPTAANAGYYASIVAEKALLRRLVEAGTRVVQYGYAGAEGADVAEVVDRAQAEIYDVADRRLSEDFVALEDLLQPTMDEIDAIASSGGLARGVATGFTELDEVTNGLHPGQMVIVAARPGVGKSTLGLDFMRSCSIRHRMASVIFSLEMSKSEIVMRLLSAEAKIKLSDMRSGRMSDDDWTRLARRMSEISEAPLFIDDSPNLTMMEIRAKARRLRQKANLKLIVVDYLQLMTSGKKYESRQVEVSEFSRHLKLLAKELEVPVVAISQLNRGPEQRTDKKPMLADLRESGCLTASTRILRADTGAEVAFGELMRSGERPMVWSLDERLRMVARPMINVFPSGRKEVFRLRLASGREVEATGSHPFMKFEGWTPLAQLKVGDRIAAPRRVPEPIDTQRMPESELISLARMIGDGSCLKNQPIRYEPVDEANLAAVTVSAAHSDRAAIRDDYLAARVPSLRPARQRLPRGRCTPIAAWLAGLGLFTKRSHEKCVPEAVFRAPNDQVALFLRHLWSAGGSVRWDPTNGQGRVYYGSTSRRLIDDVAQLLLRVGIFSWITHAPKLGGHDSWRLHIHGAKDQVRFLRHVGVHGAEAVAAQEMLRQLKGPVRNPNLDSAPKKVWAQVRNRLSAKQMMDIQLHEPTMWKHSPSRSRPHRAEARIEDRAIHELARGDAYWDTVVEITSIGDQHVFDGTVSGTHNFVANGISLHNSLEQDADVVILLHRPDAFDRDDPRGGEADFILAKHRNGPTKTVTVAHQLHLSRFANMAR

[6] = target: T3, Protein RecA (Mycobacterium tuberculosis, UniProt P9WHJ3); assay: Fluorescence Cell-Free Homogeneous Dose Retest to Identify Inhibitors of RecA-Intein Splicing Activity. [Related pubchem assays (depositor defined):AID2097, AID2223, AID489010, AID492950]; format: functional
T3 sequence (P9WHJ3 whole entry): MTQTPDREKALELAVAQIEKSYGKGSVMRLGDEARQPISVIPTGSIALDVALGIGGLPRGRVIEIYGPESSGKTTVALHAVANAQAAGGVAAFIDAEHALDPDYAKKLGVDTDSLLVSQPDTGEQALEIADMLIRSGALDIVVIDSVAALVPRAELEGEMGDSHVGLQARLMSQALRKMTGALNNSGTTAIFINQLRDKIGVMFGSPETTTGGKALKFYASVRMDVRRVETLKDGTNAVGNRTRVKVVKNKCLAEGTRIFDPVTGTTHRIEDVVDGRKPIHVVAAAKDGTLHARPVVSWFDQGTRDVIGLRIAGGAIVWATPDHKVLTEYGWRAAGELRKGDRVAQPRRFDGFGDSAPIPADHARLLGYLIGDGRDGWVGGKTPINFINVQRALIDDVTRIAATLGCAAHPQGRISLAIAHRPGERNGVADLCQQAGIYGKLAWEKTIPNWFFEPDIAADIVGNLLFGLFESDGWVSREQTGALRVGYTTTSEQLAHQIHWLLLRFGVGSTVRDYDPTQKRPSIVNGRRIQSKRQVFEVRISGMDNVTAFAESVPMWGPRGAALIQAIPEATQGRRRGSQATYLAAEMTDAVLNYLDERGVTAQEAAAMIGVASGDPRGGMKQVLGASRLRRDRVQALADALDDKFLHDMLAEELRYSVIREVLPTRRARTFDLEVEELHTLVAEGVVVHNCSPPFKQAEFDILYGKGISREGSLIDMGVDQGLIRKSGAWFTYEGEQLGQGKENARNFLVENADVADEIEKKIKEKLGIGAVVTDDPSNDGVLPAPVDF

[7] = inhibitors of intracellular T. cruzi replication, confirmation, NIH3T3 host cells, beta-gal luminescence (AID 2044); format: functional, cell-based;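 note: intracellular parasites grown in NIH/3T3 mouse fibroblasts as host cells; luminescent beta-galactosidase reporter signal from transgenic T. cruzi replicating inside host cells; inhibitors lower the luminescence signal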
[8] = cytotoxicity toward NIH3T3 fibroblasts, dose response, counter-screen, cell-based, ATP luminescence, mouse fibroblasts (AID 2010); format: functional;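 note: cells exposed to compound for about 90 hours before reading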
[9] = target: Cytochrome P450 3A4 (Homo sapiens, UniProt P08684);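 note: CYP3A4 tested as one member of a cytochrome P450 panel screen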
Cytochrome P450 3A4, sequence (P08684 whole entry): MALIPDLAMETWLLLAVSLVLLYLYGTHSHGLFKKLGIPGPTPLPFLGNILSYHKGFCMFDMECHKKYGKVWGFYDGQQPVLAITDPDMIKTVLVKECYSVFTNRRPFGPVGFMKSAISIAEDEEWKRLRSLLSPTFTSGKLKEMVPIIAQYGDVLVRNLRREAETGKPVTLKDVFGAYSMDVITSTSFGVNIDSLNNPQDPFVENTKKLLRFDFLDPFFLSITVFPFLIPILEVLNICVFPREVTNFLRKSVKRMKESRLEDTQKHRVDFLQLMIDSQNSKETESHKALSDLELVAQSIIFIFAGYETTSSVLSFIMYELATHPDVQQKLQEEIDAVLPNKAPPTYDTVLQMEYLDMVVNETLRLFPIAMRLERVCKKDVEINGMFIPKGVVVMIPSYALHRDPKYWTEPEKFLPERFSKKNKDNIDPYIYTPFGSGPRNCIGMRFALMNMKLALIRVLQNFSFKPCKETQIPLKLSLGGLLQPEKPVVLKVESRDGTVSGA

Cytochrome P450 2C19, sequence (P33261 whole entry): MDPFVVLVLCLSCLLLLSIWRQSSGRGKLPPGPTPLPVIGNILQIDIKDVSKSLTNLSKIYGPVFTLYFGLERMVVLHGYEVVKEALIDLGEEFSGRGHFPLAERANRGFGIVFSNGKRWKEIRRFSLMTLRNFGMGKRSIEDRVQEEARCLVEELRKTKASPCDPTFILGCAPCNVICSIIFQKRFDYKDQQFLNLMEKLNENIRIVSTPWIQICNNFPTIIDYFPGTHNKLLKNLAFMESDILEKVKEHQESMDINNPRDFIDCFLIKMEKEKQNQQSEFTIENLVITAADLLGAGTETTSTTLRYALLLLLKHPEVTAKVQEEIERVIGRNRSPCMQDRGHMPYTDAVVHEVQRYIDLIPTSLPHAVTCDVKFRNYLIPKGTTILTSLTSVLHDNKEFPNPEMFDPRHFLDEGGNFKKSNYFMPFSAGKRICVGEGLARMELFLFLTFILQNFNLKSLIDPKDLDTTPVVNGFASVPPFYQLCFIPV

SMILES: CC(C)C(NC(=O)C(c1ccccc1)c1ccccc1)c1nc2ccccc2[nH]1 (stereo unspecified)
- EC50 [1]: 1.87 µM (active)
- EC50 [2]: > 150 µM (not active)
- EC50 [3]: 16 µM (active)

SMILES: COC(=O)N1CCC2(CCN(C(=O)Nc3cccc(F)c3)CC2)CC1
- AC50 ([4]; read-out: AC50): 5.01 µM (inconclusive)

SMILES: Cc1n[nH]c(O)c1C(c1ccc(Br)cc1)c1c(C)n[nH]c1O
- AC50 [5]: 0.588 µM (active)
- EC50 [6]: 0.338 µM (active)

SMILES: C/C(CC(=O)Nc1ccc(F)cc1)=N\NC(=O)COc1ccccc1
- AC50 [5]: 10.3 µM (active)
- EC50 [6]: 3.72 µM (active)

SMILES: COc1ccc(N2C(=O)C(Cl)=C(N3CCN(Cc4ccccc4)CC3)C2=O)cc1
- AC50 [5]: 8.12 µM (active)
- EC50 [6]: 1.67 µM (active)

SMILES: Cc1ccc(C(=O)Nc2nc(-c3ccccc3)c(-c3ccccc3)o2)cc1
- EC50 [7]: 2.48 µM (active)
- EC50 [8]: > 60 µM (not active)
- EC50 [1]: 1.27 µM (active)
- EC50 [3]: 2.36 µM (active)

SMILES: CCCCN(CCCC)c1cc(C)nc(-c2ccccc2O)n1
- EC50 [1]: 19.7 µM (active)
- EC50 [2]: 5.4 µM (active)
- EC50 [3]: > 150 µM (not active)

SMILES: O=C(COc1ccccc1)Nc1nnc(-c2ccccc2Cl)o1
- EC50 [1]: > 150 µM (not active)
- EC50 [2]: > 150 µM (not active)
- EC50 [3]: > 150 µM (not active)

SMILES: CC(NCc1ccncc1)C12CC3CC(CC(C3)C1)C2 (stereo unspecified)
- EC50 [7]: > 60 µM (not active)
- EC50 [8]: > 60 µM (not active)

SMILES: COc1cc(/C=N/NC(=O)c2cccs2)ccc1OCc1ccccc1
- AC50 [9]: 15.8 µM (inconclusive)

SMILES: CCOc1ccc2oc(C(=O)NC3CCN(Cc4ccccc4)CC3)c(C)c2c1
- EC50 [7]: 2 µM (active)
- EC50 [8]: > 60 µM (not active)

SMILES: N#Cc1cccc(-c2nc(NCc3ccccc3)c3ccccc3n2)c1
- AC50 [9]: 20 µM (inconclusive)

SMILES: CCOc1ccc(CCNC(=O)C(CC)n2nc(C)n3c(cc4sccc43)c2=O)cc1OCC (stereo unspecified)
- EC50 [7]: 1.31 µM (active)
- EC50 [8]: > 60 µM (not active)

SMILES: CN(C)CCCOc1ccc(Cl)cc1Br
- EC50 [7]: 0.535 µM (active)
- EC50 [8]: > 60 µM (not active)

SMILES: COc1ccc(/C=C2\N=C(SC)N(C)C2=O)cc1
- AC50 [9]: 28.2 µM (inconclusive)

SMILES: COC(=O)NCC(c1cccnc1)N1CCN(c2ccccc2OC)CC1 (stereo unspecified)
- AC50 ([4]; read-out: AC50): 11.2 µM (inconclusive)

SMILES: CN(C)CCCNC(=O)c1cc2c3ccccc3n(C)c2s1
- EC50 [7]: 0.136 µM (active)
- EC50 [8]: > 60 µM (not active)

SMILES: O=C(c1cc(Cl)c(=O)n(Cc2ccc(Cl)cc2)c1)N1CCOCC1
- AC50 [9]: 28.2 µM (inconclusive)

SMILES: Cc1ccc(S(=O)(=O)NCc2cccc([N+](=O)[O-])c2)cc1
- AC50 ([4]; read-out: AC50): 2.51 µM (inconclusive)

SMILES: CC(C)(C)c1cc(C(=O)CCN2CCOCC2)cc(C(C)(C)C)c1O
- AC50 [5]: 129 µM (active)
- EC50 [6]: 16.8 µM (active)

SMILES: O=C(O)CC/C(=C\c1cc2c(cc1Br)OCO2)c1nc2ccccc2s1
- EC50 [1]: 5.71 µM (active)
- EC50 [2]: 56 µM (active)
- EC50 [3]: > 150 µM (not active)

SMILES: CC1(C)S[C@@H]2[C@H](NC(=O)C(NC(=O)N3CCNC3=O)c3ccccc3)C(=O)N2[C@H]1C(=O)O (stereo partly specified)
- EC50 [1]: < 0.06 µM (active)
- EC50 [3]: < 0.06 µM (active)

SMILES: CC[C@H]1C2=C3C(CC[C@H]4C(OCc5ccc(F)cc5C(F)(F)F)OC[C@](C)([C@@H]34)N(C(=O)OC(C)(C)C)C2)C2COC(=O)OCC21 (stereo partly specified)
- AC50 ([4]; read-out: AC50): 39.8 µM (inconclusive)

SMILES: CCCCCCC1CC(C)(/C(C)=N/NC(N)=O)OC1=O (stereo unspecified)
- AC50 [9]: 17.8 µM (inconclusive)

SMILES: COc1cc(C(c2c(C)n[nH]c2O)c2c(C)n[nH]c2O)ccc1OC(C)C
- AC50 [5]: 0.318 µM (active)
- EC50 [6]: 0.223 µM (active)

SMILES: C#C[C@]1(O)CC[C@@H]2[C@H]3CCc4cc(OC)ccc4[C@@H]3CC[C@@]21C
- AC50 ([4]; read-out: AC50): 1.26 µM (inconclusive)

SMILES: Cc1cc(Cl)c(OCCOCCN2CCCC(C)C2)c(Br)c1 (stereo unspecified)
- EC50 [7]: 0.393 µM (active)
- EC50 [8]: > 60 µM (not active)

SMILES: c1ccc(C2CCC(N3CCC(N4CCCCC4)CC3)CC2)cc1 (stereo unspecified)
- AC50 ([4]; read-out: AC50): 31.6 µM (inconclusive)

SMILES: OC(CN1CCN(Cc2ccccc2)CC1)c1ccc(Br)cc1 (stereo unspecified)
- EC50 [7]: 0.324 µM (active)
- EC50 [8]: 10 µM (active)

SMILES: CC(C)C[C@@H](C(=O)NC1CCN(Cc2ccccc2)CC1)N1C(=O)N2CCc3c([nH]c4ccccc34)[C@@]2(C)C1=O
- EC50 [7]: 6.88 µM (active)
- EC50 [8]: 5.05 µM (active)

SMILES: Cc1cc(C)n2nc(SCC(=O)N/N=C/c3ccccc3F)nc2n1
- AC50 ([4]; read-out: AC50): 20 µM (inconclusive)

SMILES: COc1ccccc1N=C(S)N(Cc1ccc(C)cc1)Cc1ccccn1
- EC50 [7]: 1.55 µM (active)
- EC50 [8]: > 60 µM (not active)

SMILES: Cc1cccc(CSC2=NCCN2S(=O)(=O)c2ccc(F)cc2)c1
- EC50 [1]: 41.8 µM (active)
- EC50 [2]: 23.2 µM (active)
- EC50 [3]: > 150 µM (not active)

SMILES: O=c1oc(-c2ccccc2Cl)nc2ccsc12
- AC50 [5]: 14 µM (active)
- EC50 [6]: 23.3 µM (active)

SMILES: Cn1c(=O)c2nc(CCCCc3nc4c(=O)n(C)c(=S)n(C)c4[nH]3)[nH]c2n(C)c1=S
- AC50 [4]: inconclusive

SMILES: CCCC[C@@H]1C[C@H]1C(NC(=O)c1cccs1)c1ccc(C(F)(F)F)cc1 (stereo partly specified)
- AC50 [4]: inconclusive

SMILES: Cc1ccccc1N1CCN(S(=O)(=O)c2nnc(NC(=O)c3ccco3)s2)CC1
- EC50 [1]: 11 µM (active)
- EC50 [2]: 5.16 µM (active)
- EC50 [3]: 41.7 µM (active)

SMILES: COc1ccc(C(=O)NNC(=S)NC(=O)c2ccco2)cc1
- EC50 [1]: 2.98 µM (active)
- EC50 [2]: > 150 µM (not active)
- EC50 [3]: 12 µM (active)

SMILES: CN(CCOc1ccccc1)CC(=O)Nc1ccc(S(=O)(=O)N2CCCC2)cc1
- EC50 [7]: 0.695 µM (active)
- EC50 [8]: > 60 µM (not active)

SMILES: Cc1c(C(=O)N2CCN(S(=O)(=O)c3ccc(F)cc3)CC2)oc2ccccc12
- EC50 [7]: 0.447 µM (active)
- EC50 [8]: > 60 µM (not active)

SMILES: Cc1c(C(=O)NN)nn(-c2ccc(Cl)cc2)c(=O)c1C#N
- AC50 [5]: 79.8 µM (active)
- EC50 [6]: 8.06 µM (active)

SMILES: COc1ccc(Nc2oc(COc3ccccc3F)nc2C#N)cc1
- AC50 [5]: 19.9 µM (active)
- EC50 [6]: 2.44 µM (active)

SMILES: COc1cccc(C(Nc2ccccn2)c2c(NC(=O)c3ccco3)sc(C)c2C)c1 (stereo unspecified)
- EC50 [7]: 2.53 µM (active)
- EC50 [8]: > 60 µM (not active)
